# Source: ChEMBL document CHEMBL1629425, “Antibacterial prenylated acylphloroglucinols from the fern Elaphoglossum yungense” (2010)
# Calls of active or inactive are those of the source. No cut-off for these calls is given here.
# Tested on: Staphylococcus aureus
# Assay: Antibacterial activity against Staphylococcus aureus ATCC 6738 after 24 hrs by Broth micro dilution method
# Assay type: functional
# Conditions: ATCC 6738, 24 h
SMILES,MIC [µg/mL],MBC [µg/mL]
CCCC(=O)c1c(O)c(CC=C(C)C)c(O)c(CC2=C(O)C(C)(C/C=C(\C)CCC=C(C)C)C(O)=C(C(C)=O)C2=O)c1O (stereo not given) [YUNGENSIN D],100,> 200
CCCC(=O)c1c(O)c(C/C=C(\C)CCC=C(C)C)c(O)c(CC2=C(O)C(C)(C/C=C(\C)CCC=C(C)C)C(O)=C(C(C)=O)C2=O)c1O (stereo not given) [YUNGENSIN E],100,200
CCCC(=O)c1c(O)c2c(c(CC3=C(O)C(C)(C/C=C(\C)CCC=C(C)C)C(O)=C(C(C)=O)C3=O)c1O)OC(C)(C)C=C2 (stereo not given) [YUNGENSIN F],50,100

# The remaining compounds from weak to strong by MIC, led by results:
MIC [µg/mL],SMILES,MBC [µg/mL]
50,CCCC(=O)c1c(O)c(CC2=C(O)C(C)(C/C=C(\C)CCC=C(C)C)C(O)=C(C(C)=O)C2=O)c(O)c2c1OC(C)(CCC=C(C)C)C=C2 (stereo not given) [YUNGENSIN C],100
10,CCCC(=O)c1c(O)c(CC2=C(O)C(C)(C/C=C(\C)CCC=C(C)C)C(O)=C(C(C)=O)C2=O)c(O)c2c1OC(C)(C)C=C2 (stereo not given) [YUNGENSIN A],50
10,CCCCCC(=O)c1c(O)c(CC2=C(O)C(C)(C/C=C(\C)CCC=C(C)C)C(O)=C(C(C)=O)C2=O)c(O)c2c1OC(C)(C)C=C2 (stereo not given) [YUNGENSIN B],100

# Tested on: Pseudomonas aeruginosa
# Assay: Antibacterial activity against Pseudomonas aeruginosa ATCC 27853 after 24 hrs by Broth micro dilution method
# Assay type: functional
# Conditions: ATCC 27853, 24 h
SMILES,MIC [µg/mL],MBC [µg/mL]
CCCC(=O)c1c(O)c(CC=C(C)C)c(O)c(CC2=C(O)C(C)(C/C=C(\C)CCC=C(C)C)C(O)=C(C(C)=O)C2=O)c1O (stereo not given) [YUNGENSIN D],50,100
CCCC(=O)c1c(O)c(C/C=C(\C)CCC=C(C)C)c(O)c(CC2=C(O)C(C)(C/C=C(\C)CCC=C(C)C)C(O)=C(C(C)=O)C2=O)c1O (stereo not given) [YUNGENSIN E],100,200
CCCC(=O)c1c(O)c2c(c(CC3=C(O)C(C)(C/C=C(\C)CCC=C(C)C)C(O)=C(C(C)=O)C3=O)c1O)OC(C)(C)C=C2 (stereo not given) [YUNGENSIN F],50,50

# The next lines start with results.
MIC [µg/mL],SMILES,MBC [µg/mL]
50,CCCC(=O)c1c(O)c(CC2=C(O)C(C)(C/C=C(\C)CCC=C(C)C)C(O)=C(C(C)=O)C2=O)c(O)c2c1OC(C)(CCC=C(C)C)C=C2 (stereo not given) [YUNGENSIN C],50
10,CCCC(=O)c1c(O)c(CC2=C(O)C(C)(C/C=C(\C)CCC=C(C)C)C(O)=C(C(C)=O)C2=O)c(O)c2c1OC(C)(C)C=C2 (stereo not given) [YUNGENSIN A],50
10,CCCCCC(=O)c1c(O)c(CC2=C(O)C(C)(C/C=C(\C)CCC=C(C)C)C(O)=C(C(C)=O)C2=O)c(O)c2c1OC(C)(C)C=C2 (stereo not given) [YUNGENSIN B],50

# Tested on: Staphylococcus aureus
# Assay: Antibacterial activity against Staphylococcus aureus ATCC 6738 assessed as growth inhibition at 10 ug/ml after 24 hrs by Broth micro dilution method relative to control
# Assay type: functional
# Conditions: ATCC 6738, 24 h, read-out: GI
row,SMILES,inhibition of growth at 10 µg/mL [%]
1,CCCC(=O)c1c(O)c(CC2=C(O)C(C)(C/C=C(\C)CCC=C(C)C)C(O)=C(C(C)=O)C2=O)c(O)c2c1OC(C)(C)C=C2 (stereo not given) [YUNGENSIN A],99
2,CCCCCC(=O)c1c(O)c(CC2=C(O)C(C)(C/C=C(\C)CCC=C(C)C)C(O)=C(C(C)=O)C2=O)c(O)c2c1OC(C)(C)C=C2 (stereo not given) [YUNGENSIN B],99
3,CCCC(=O)c1c(O)c(CC2=C(O)C(C)(C/C=C(\C)CCC=C(C)C)C(O)=C(C(C)=O)C2=O)c(O)c2c1OC(C)(CCC=C(C)C)C=C2 (stereo not given) [YUNGENSIN C],92
4,CCCC(=O)c1c(O)c(CC=C(C)C)c(O)c(CC2=C(O)C(C)(C/C=C(\C)CCC=C(C)C)C(O)=C(C(C)=O)C2=O)c1O (stereo not given) [YUNGENSIN D],83
5,CCCC(=O)c1c(O)c(C/C=C(\C)CCC=C(C)C)c(O)c(CC2=C(O)C(C)(C/C=C(\C)CCC=C(C)C)C(O)=C(C(C)=O)C2=O)c1O (stereo not given) [YUNGENSIN E],87
6,CCCC(=O)c1c(O)c2c(c(CC3=C(O)C(C)(C/C=C(\C)CCC=C(C)C)C(O)=C(C(C)=O)C3=O)c1O)OC(C)(C)C=C2 (stereo not given) [YUNGENSIN F],93

# Tested on: Pseudomonas aeruginosa
# Assay: Antibacterial activity against Pseudomonas aeruginosa ATCC 27853 assessed as growth inhibition at 10 ug/ml after 24 hrs by Broth micro dilution method relative to control
# Assay type: functional
# Conditions: ATCC 27853, 24 h, read-out: GI
row,SMILES,inhibition of growth at 10 µg/mL [%]
1,CCCC(=O)c1c(O)c(CC2=C(O)C(C)(C/C=C(\C)CCC=C(C)C)C(O)=C(C(C)=O)C2=O)c(O)c2c1OC(C)(C)C=C2 (stereo not given) [YUNGENSIN A],99
2,CCCCCC(=O)c1c(O)c(CC2=C(O)C(C)(C/C=C(\C)CCC=C(C)C)C(O)=C(C(C)=O)C2=O)c(O)c2c1OC(C)(C)C=C2 (stereo not given) [YUNGENSIN B],99
3,CCCC(=O)c1c(O)c(CC2=C(O)C(C)(C/C=C(\C)CCC=C(C)C)C(O)=C(C(C)=O)C2=O)c(O)c2c1OC(C)(CCC=C(C)C)C=C2 (stereo not given) [YUNGENSIN C],87
4,CCCC(=O)c1c(O)c(CC=C(C)C)c(O)c(CC2=C(O)C(C)(C/C=C(\C)CCC=C(C)C)C(O)=C(C(C)=O)C2=O)c1O (stereo not given) [YUNGENSIN D],86
5,CCCC(=O)c1c(O)c(C/C=C(\C)CCC=C(C)C)c(O)c(CC2=C(O)C(C)(C/C=C(\C)CCC=C(C)C)C(O)=C(C(C)=O)C2=O)c1O (stereo not given) [YUNGENSIN E],87
6,CCCC(=O)c1c(O)c2c(c(CC3=C(O)C(C)(C/C=C(\C)CCC=C(C)C)C(O)=C(C(C)=O)C3=O)c1O)OC(C)(C)C=C2 (stereo not given) [YUNGENSIN F],86

# Tested on: Staphylococcus aureus
# Assay: increase in biofilm formation of Staphylococcus aureus ATCC 6738 at 10 ug/ml relative to control
# Assay type: functional, organism-based
# Conditions: not given
row,SMILES,Activity
1,CCCC(=O)c1c(O)c(CC2=C(O)C(C)(C/C=C(\C)CCC=C(C)C)C(O)=C(C(C)=O)C2=O)c(O)c2c1OC(C)(C)C=C2 (stereo not given) [YUNGENSIN A],inactive
2,CCCCCC(=O)c1c(O)c(CC2=C(O)C(C)(C/C=C(\C)CCC=C(C)C)C(O)=C(C(C)=O)C2=O)c(O)c2c1OC(C)(C)C=C2 (stereo not given) [YUNGENSIN B],inactive
3,CCCC(=O)c1c(O)c(C/C=C(\C)CCC=C(C)C)c(O)c(CC2=C(O)C(C)(C/C=C(\C)CCC=C(C)C)C(O)=C(C(C)=O)C2=O)c1O (stereo not given) [YUNGENSIN E],inactive
4,CCCC(=O)c1c(O)c2c(c(CC3=C(O)C(C)(C/C=C(\C)CCC=C(C)C)C(O)=C(C(C)=O)C3=O)c1O)OC(C)(C)C=C2 (stereo not given) [YUNGENSIN F],inactive
